Assay results: patent US20120196887A1, “METHODS AND COMPOSITIONS FOR IMPROVED RIFAMYCIN THERAPIES” (priority 2011, published 2012)
Converted amounts (≈) assume the structure as drawn. “And” between values parts separate entries of the source, which are not always exact repeats. Equal values may be shown once. Read-outs that look alike come from different tables or passages of the source.

Key:
[1] = tested on: Enteroaggregative E. coli; test: Minimal inhibitory concentration (MIC), Enteroaggregative E. coli; assay type: cell-based; conditions: Escherichia coli; Enteroaggregative strain of E. coli used
[2] = tested on: Enteroaggregative E. coli; test: Growth (OD600) and total protein of Enteroaggregative E. coli with rifaximin and bile acids; assay type: cell-based; conditions: 16 μg/mL rifaximin + 4 mM total bile acids
Experimental: A second culture of Enteroaggregative E. coli bacteria in LB media to which was added 4 mM of bile acids (comprising an equimolar mixture of each of the bile acids: cholic, deoxycholic, chenodeoxycholic, glycocholic, lithocholic, and taurocholic acids at pH 7.4).

[3] = tested on: E. coli H10407; test: Total protein content of bacteria treated with rifaximin and bile acids (Bradford assay); assay type: cell-based, Escherichia coli; conditions: 16 μg/mL rifaximin + bile acids vs rifaximin without bile acids; 4 hours incubation
Experimental: Aliquots (1 mL) of the culture in each tube were taken every hour for total protein determination. In order to lyse the cells and release the protein, 300 μL of permeabilization solution (2.4 mg/mL hexadecyl trimethylammonium bromide, 1.2 mg/mL sodium deoxycholate, 600 mM dibasic sodium phosphate, 60 mM potassium chloride, 6 mM magnesium sulfate, and 16 μL/mL beta-mercaptoethanol) was added. The tubes were incubated for one hour at room temperature and then centrifuged at 15000×g for 20 minutes. The protein concentration was determined in triplicate using the Bradford assay (Bradford, M. M., A rapid and sensitive method for the quantitation of microgram quantities of protein utilizing the principle of protein-dye binding. Anal Biochem. 72:248-54, 1976) using bovine serum albumin (BSA) as the standard. Each experiment was repeated three times with the average and standard deviation reported.

[4] = tested on: Enterotoxigenic Escherichia coli (ETEC) strain H10407; conditions: cited from earlier work
[5] = tested on: coliform flora; conditions: cited from earlier work
[6] = tested on: Enterotoxigenic Escherichia coli (ETEC) strain H10407; test: Growth of ETEC strain H10407 with rifaximin in the presence and absence of bile acids (OD600 / cell density); assay type: cell-based
Experimental: Enterotoxigenic Escherichia coli (ETEC) strain H10407 was used as a model bacteria in all the susceptibility experiments.
Equimolar concentrations (0.67 mM) of each of these bile acids were pooled (4 mM total bile acids) for the experiments. In order to determine the Total Human Bile Concentration, a sample of human bile taken after cholecystectomy was kindly provided by Dr. David Graham (Department of Medicine, Veterans Affairs Medical Center and the Division of Molecular Virology, Baylor College of Medicine, Houston, Tex., and Director of Study Design and Clinical Research Core, Texas Medical Center Digestive Disease. Center). The total bile acids concentration was determined using the Diazyme Total Bile Acids assay (Diazyme Laboratories, CA) following the protocol provided by the manufacturer.
In each experiment, an overnight culture of E. coli H10407 was added to the LB media to OD600 of 0.04 (approximately 4×10^7 cells/mL) and incubated for 4-6 hours at 37° C. in a shaker at 200 rpm. Optical density measurements (OD600) were determined every 30 minutes. The experiment was replicated four times and average OD used for the analysis. […]

[7] = tested on: Salmonella enterica (ATCC #14028); test: Minimal inhibitory concentration (MIC), Salmonella enterica; assay type: cell-based; conditions: ATCC14028
[8] = tested on: Shigella flexneri (serotype 2B); test: Growth (OD600) and total protein of Shigella flexneri with rifaximin and bile acids; assay type: cell-based; conditions: 32 μg/mL rifaximin + 4 mM total bile acids
Experimental: A second culture of Shigella flexneri (serotype 2B) bacteria in LB media to which was added 4 mM of bile acids (comprising an equimolar mixture of each of the bile acids: cholic, deoxycholic, chenodeoxycholic, glycocholic, lithocholic, and taurocholic acids at pH 7.4).

[9] = tested on: Shigella flexneri (serotype 2B); test: Minimal inhibitory concentration (MIC), Shigella flexneri; assay type: cell-based
[10] = tested on: beta-galactosidase expressed by E. coli H10407; test: Beta-galactosidase assay (IPTG-induced expression, Miller Units); assay type: cell-based, Escherichia coli; conditions: rifaximin added to the culture medium (8, 16, 32 μg/mL), no bile acids
Experimental: Beta-Galactosidase Assay: Beta-galactosidase is an essential enzyme required by E. coli to metabolize lactose during conditions when available glucose levels are low, but lactose levels are high. When expression of beta-galactosidase is inhibited in a media containing limiting amounts of glucose but high amounts of lactose, once the glucose in the media is exhausted bacterial death occurs. […] To, 1.5 mL microfuge tubes, 50 μL of the induced culture was added to 200 μL of permeabilization solution (0.8 mg/mL hexadecyl trimethylammonium bromide (CTAB), 0.4 mg/mL sodium deoxycholate, 200 mM dibasic sodium phosphate (Na2HPO4), 20 mM potassium chloride (KCl), 2 mM magnesium sulfate (MgSO4), and 5.4 μL/mL beta-mercaptoethanol. After 30 minutes incubation at 30° C., 600 μL of substrate solution (60 mM Na2HPO4, 40 mM NaH2PO4, 10 mM KCl, 20 μg/mL CTAB, 1 mg/mL O-nitrophenyl-β-D-galactoside (ONPG), and 2.7 μL/mL β-mercaptoethanol) was added and the time of addition was recorded. The incubation was allowed to continue at 30° C. for 40 minutes, after which 350 μL of 2 M sodium carbonate (Na2CO3) was added to stop the reaction. The assay, tubes were centrifuged at 15000×g for 15 minutes and absorbance measurements at 420 nm were made in triplicate using the supernatants.
The concentration of β-galactosidase in Miller Units was calculated as: […]

[11] = tested on: Clostridium difficile; conditions: cited from earlier work
[12] = tested on: Salmonella enterica (ATCC #14028); test: Growth (OD600) and total protein of Salmonella enterica with rifaximin and bile acids; assay type: cell-based; conditions: 32 μg/mL rifaximin + 4 mM total bile acids
Experimental: A second culture of Salmonella enterica bacteria in LB media to which was added 4 mM of bile acids (comprising an equimolar mixture of each of the bile acids: cholic, deoxycholic, chenodeoxycholic, glycocholic, lithocholic, and taurocholic acids at pH 7.4).

[13] = tested on: Enterotoxigenic Escherichia coli (ETEC) strain H10407; test: Growth of ETEC strain H10407 with rifaximin in the presence and absence of bile acids (OD600 / cell density); assay type: cell-based; remark: listed apart in the source
[14] = bile acid alone, no rifaximin, after 4 hours of incubation
[15] = 4 mM bile acid + 16 μg/mL rifaximin vs 16 μg/mL rifaximin alone, 4 hours
[16] = bile acid 4 mM combined with 16 μg/mL rifaximin, after 4 hours of incubation

With `CO[C@H]1/C=C/O[C@@]2(C)Oc3c(C)c(O)c4c(O)c(c5c(nc6cc(C)ccn65)c4c3C2=O)NC(=O)/C(C)=C\C=C\[C@H](C)[C@H](O)[C@@H](C)[C@@H](O)[C@@H](C)[C@H](OC(C)=O)[C@@H]1C` [rifaximin, Rifaximin] the MIC [1] was 32 µg/mL (≈ 40.7 µM), the “effect of adding bile acids to rifaximin on growth and protein synthesis” value (from here on “effect of adding bile acids to rifaximin”) [2] was “increases its ability to inhibit the growth and protein synthesis” and the “percent decrease in total bacterial protein expression when bile acids added” value [3] was 59%. For the same compound, the “in vitro minimal inhibitory concentration (MIC)” value [4] was 32 to 128 µg/mL, the “average MICs of most coliform flora” value [5] was “about 32 μg/mL” and the “inhibition of bacterial growth by rifaximin alone” value ([6]; 16 μg/mL rifaximin, absence of bile acids) was “statistically significant (p=0.026, n=4) inhibition of bacterial growth”. For the same compound, the “increase of anti-ETEC activity on addition of bile acids / human bile to rifaximin” value ([6]; after 4 hours) was “greater than 70%”, the “Cell density, 16 μg/mL RIFAXIMIN” value ([6]; rifaximin alone, no bile acids, after 4 hours of incubation, control of the bile acid named in the row) was 6.6 ± 0.50 ×10^8 bacteria/milliliter of c and 4.9 ± 1.0 ×10^8 bacteria/milliliter of c and the MIC [7] was 64 µg/mL (≈ 81.4 µM). For the same compound, the “effect of adding bile acids to rifaximin” value [8] was “increases its ability to inhibit the growth and protein synthesis”, the MIC [9] was 64 µg/mL (≈ 81.4 µM) and the “amount of beta-galactosidase produced vs control” value [10] was “decreased in a dose-dependent fashion below the control values”. For the same compound, the MIC [11] was 0.025 µg/mL (≈ 0.0318 µM) and the “effect of adding bile acids to rifaximin” value [12] was “increases its ability to inhibit the growth and protein synthesis”.
In the case of `C[C@H](CCC(=O)O)[C@H]1CC[C@H]2[C@@H]3CC[C@@H]4C[C@H](O)CC[C@]4(C)[C@H]3C[C@H](O)[C@]12C` [Deoxycholic acid], the “Cell density, 4 mM BILE ACIDS” value [13, 14] is reported as 3.9 ± 0.34 ×10^8 bacteria/milliliter of c, the “PERCENT DECREASE IN CELL DENSITY ON ADDITION OF BILE ACIDS TO RIFAXIMIN” value [6, 15] is reported as 93.8 ± 0.51% and the “PERCENT DECREASE IN CELL DENSITY ON ADDITION OF BILE ACIDS TO RIFAXIMIN” value ([6]; 4 mM bile acid + 16 μg/mL rifaximin vs 16 μg/mL rifaximin alone, 4 hours, listed as deoxycholic acid) is reported as 93.8%. The “Cell density, 4 mM BILE ACIDS + 16 μg/mL RIFAXIMIN” value [6, 16] was 0.30 ± 0.49 ×10^8 bacteria/milliliter of c.
For `C[C@H](CCC(=O)NCC(=O)O)[C@H]1CC[C@H]2[C@@H]3[C@H](O)C[C@@H]4C[C@H](O)CC[C@]4(C)[C@H]3C[C@H](O)[C@]12C` [Glycocholic acid], the “Cell density, 4 mM BILE ACIDS” value [13, 14] was 14 ± 0.32 ×10^8 bacteria/milliliter of c, the “PERCENT DECREASE IN CELL DENSITY ON ADDITION OF BILE ACIDS TO RIFAXIMIN” value [6, 15] was 80.8 ± 0.40% and the “PERCENT DECREASE IN CELL DENSITY ON ADDITION OF BILE ACIDS TO RIFAXIMIN” value ([6]; 4 mM bile acid + 16 μg/mL rifaximin vs 16 μg/mL rifaximin alone, 4 hours, listed as glycocholic acid) was 80.8%. For the same compound, the “Cell density, 4 mM BILE ACIDS + 16 μg/mL RIFAXIMIN” value [6, 16] was 0.94 ± 0.60 ×10^8 bacteria/milliliter of c.
For `C[C@H](CCC(=O)O)[C@H]1CC[C@H]2[C@@H]3CC[C@@H]4C[C@H](O)CC[C@]4(C)[C@H]3CC[C@]12C` [Lithocholic acid], the “Cell density, 4 mM BILE ACIDS” value [13, 14] was 6.6 ± 0.25 ×10^8 bacteria/milliliter of c, the “PERCENT DECREASE IN CELL DENSITY ON ADDITION OF BILE ACIDS TO RIFAXIMIN” value [6, 15] was 43.9 ± 0.73% and the “PERCENT DECREASE IN CELL DENSITY ON ADDITION OF BILE ACIDS TO RIFAXIMIN” value ([6]; 4 mM bile acid + 16 μg/mL rifaximin vs 16 μg/mL rifaximin alone, 4 hours, listed as lithocholic acid) was 43.9%. The “Cell density, 4 mM BILE ACIDS + 16 μg/mL RIFAXIMIN” value [6, 16] was 2.8 ± 0.27 ×10^8 bacteria/milliliter of c.
In the case of `C[C@H](CCC(=O)O)[C@H]1CC[C@H]2[C@@H]3[C@H](O)C[C@@H]4C[C@H](O)CC[C@]4(C)[C@H]3CC[C@]12C` [Chenodeoxycholic acid], the “Cell density, 4 mM BILE ACIDS” value [13, 14] is reported as 7.0 ± 0.06 ×10^8 bacteria/milliliter of c, the “PERCENT DECREASE IN CELL DENSITY ON ADDITION OF BILE ACIDS TO RIFAXIMIN” value [6, 15] is reported as 89.2 ± 0.49% and the “PERCENT DECREASE IN CELL DENSITY ON ADDITION OF BILE ACIDS TO RIFAXIMIN” value ([6]; 4 mM bile acid + 16 μg/mL rifaximin vs 16 μg/mL rifaximin alone, 4 hours, listed as chenodeoxycholic acid) is reported as 89.2%. For the same compound, the “Cell density, 4 mM BILE ACIDS + 16 μg/mL RIFAXIMIN” value [6, 16] was 0.53 ± 0.51 ×10^8 bacteria/milliliter of c.
For `C[C@H](CCC(=O)NCCS(=O)(=O)O)[C@H]1CC[C@H]2[C@@H]3[C@H](O)C[C@@H]4C[C@H](O)CC[C@]4(C)[C@H]3C[C@H](O)[C@]12C` [Taurocholic acid], the “Cell density, 4 mM BILE ACIDS” value [13] was 14 ± 0.51, the “Cell density, 4 mM BILE ACIDS + 16 μg/mL RIFAXIMIN” value [6] was 1.1 ± 0.23 and the “PERCENT DECREASE IN CELL DENSITY ON ADDITION OF BILE ACIDS TO RIFAXIMIN” value [6] was 77.6% and 77.6 ± 0.77%.
In the case of `C[C@H](CCC(=O)O)[C@H]1CC[C@H]2[C@@H]3[C@H](O)C[C@@H]4C[C@H](O)CC[C@]4(C)[C@H]3C[C@H](O)[C@]12C` [Cholic acid], the “Cell density, 4 mM BILE ACIDS” value [13, 14] is reported as 11 ± 0.46 ×10^8 bacteria/milliliter of c, the “PERCENT DECREASE IN CELL DENSITY ON ADDITION OF BILE ACIDS TO RIFAXIMIN” value [6, 15] is reported as 95.5 ± 0.80% and the “PERCENT DECREASE IN CELL DENSITY ON ADDITION OF BILE ACIDS TO RIFAXIMIN” value ([6]; 4 mM bile acid + 16 μg/mL rifaximin vs 16 μg/mL rifaximin alone, 4 hours, listed as cholic acid) is reported as 95.5%. For the same compound, the “Cell density, 4 mM BILE ACIDS + 16 μg/mL RIFAXIMIN” value [6, 16] was 0.22 ± 0.20 ×10^8 bacteria/milliliter of c.
